ChEMBL document CHEMBL6182843, “Actinomycetes: Treasure trove for discovering novel antibiotic candidates” (2025)
Converted amounts (≈) assume the structure as drawn.

Legend:
Format in all cases: functional
Xanthomonas campestris = assay: Antibacterial activity against Xanthomonas campestris
Xanthomonas oryzae = assay: Antibacterial activity against Xanthomonas oryzae
Staphylococcus aureus [1] = assay: Antibacterial activity against methicillin-resistant Staphylococcus aureus
Staphylococcus aureus [2] = assay: Antibacterial activity against Staphylococcus aureus
Escherichia coli = assay: Antibacterial activity against Escherichia coli
Bacillus subtilis = assay: Antibacterial activity against Bacillus subtilis

Row | Compound | MIC (Staphylococcus aureus [1]) | MIC (Escherichia coli) | also measured
1 | CO[C@H]1C[C@H](C)Cc2cc(O)cc(c2)NC(=O)/C(C)=C/CC[C@H](OC)[C@@H](OC(N)=O)/C(C)=C/[C@H](C)[C@H]1O | – | – | MIC (Xanthomonas campestris): 2.03 µg/mL (≈ 3.91 µM); MIC (Xanthomonas oryzae): 0.25 µg/mL (≈ 0.482 µM)
2 | CC(C)c1cc(=O)c2c(cc(O)c3c(=O)c4c(O)c(Br)ccc4c(=O)c32)c1=O | 0.098 µg/mL | – | –
3 | CC[C@@H]1NC(=O)[C@@H](CC(C)C)NC(=O)C(NC(=O)[C@@H](CC(=O)C(CC(=O)C(CC(O)c2ccccc2)NC(=O)[C@@H](CCCN)NC(=O)CCNC(=O)/C=C\C=C\C(C)C)C(O)CC(=O)O)Cc2ccc(O[C@@H]3OC[C@H](O)[C@H](O)[C@H]3O)cc2)C(C)NC(=O)[C@@H]2CCCN2C(=O)[C@H](C)NC(=O)[C@H](CC(=O)c2ccc(Cl)cc2N)NC(=O)CNC(=O)[C@H](CO)NC(=O)CNC1=O (some centres undefined) | – | > 64 µg/mL | MIC (Staphylococcus aureus [2]): 0.5 µg/mL (≈ 0.275 µM)
4 | CCc1c(Cc2ccccc2)oc(=O)c(CC)c1O | 12.5 µg/mL | – | MIC (Bacillus subtilis): > 50 µg/mL
5 | C=CC(C)(C)ON(CCCCCCC(O)CCCCCc1nc(CCCNC(=N)NCC=C(C)C)c(OC)nc1CCCNC(=N)NCC=C(C)C)C(=N)N (centres undefined) | 1 µg/mL | 1 µg/mL | –
6 | COC(=O)c1csc(-c2nc3c(-c4ccc(OC)cc4)c(OC)c(O)c(-c4ccc(OC)cc4)c3s2)n1 | > 50 µg/mL | 0.8 µM | MIC (Bacillus subtilis): 0.8 µg/mL (≈ 1.5 µM)
7 | COC(=O)[C@]1(O)C[C@@H](C)C[C@H](OC)[C@H](O)[C@@H](C)C/C=C(/C)[C@H](OC(N)=O)[C@@H](OC)/C=C\C=C(/C)C(=O)NC2=CC(=O)O[C@]21O | – | – | MIC (Xanthomonas campestris): 16.2 µg/mL (≈ 26 µM); MIC (Xanthomonas oryzae): 2.03 µg/mL (≈ 3.25 µM)
8 | C=CC(C)(C)ON(CCCCCCCCCCCC(O)c1nc(CCCNC(=N)N)c(OC)nc1CCCNC(=N)N)C(=N)N (centres undefined) | 0.8 µg/mL | 1.5 µg/mL | –
9 | CC[C@@H]1NC(=O)[C@@H](CC(C)C)NC(=O)C(NC(=O)[C@@H](CC(=O)C(CC(=O)C(CC(O)c2ccccc2)NC(=O)[C@@H](CCCNC(=O)CCN)NC(=O)CCNC(=O)/C=C\C=C\C(C)C)C(O)CC(=O)O)Cc2ccc(O[C@@H]3OC[C@H](O)[C@H](O)[C@H]3O)cc2)C(C)NC(=O)[C@@H]2CCCN2C(=O)[C@H](C)NC(=O)[C@H](CC(=O)c2ccc(Cl)cc2N)NC(=O)CNC(=O)[C@H](CO)NC(=O)CNC1=O (some centres undefined) | – | > 64 µg/mL | MIC (Staphylococcus aureus [2]): 1 µg/mL (≈ 0.53 µM)
10 | CC(=O)NC(CSc1c(C(C)C)c(=O)c2cc(O)c3c(=O)c4c(O)cccc4c(=O)c3c2c1=O)C(=O)O (centres undefined) | 0.195 µg/mL | – | –
11 | COC(=O)CCSC1=C(c2ccc(OC)cc2)C(O)C(OC)=C(c2ccc(OC)cc2)C1=O (centres undefined) | 12.5 µM | – | –
12 | C=CC(C)(C)ON(CCCCCCC(O)CCCCC(O)c1nc(CCCNC(=N)NCC=C(C)C)c(OC)nc1C(O)CCNC(=N)NCC=C(C)C)C(=N)N (centres undefined) | 2 µg/mL | 2 µg/mL | –
13 | COC(=O)/C(C)=C/CC[C@H](OC)[C@@H](OC(N)=O)/C(C)=C/[C@H](C)[C@@H](O)[C@H](C[C@H](C)CC1=C(OC)C(=O)C2=C(NC(=O)[C@@H](C)S2)C1=O)OC | – | – | MIC (Staphylococcus aureus [2]): 64 µg/mL (≈ 94 µM); MIC (Bacillus subtilis): 64 µg/mL (≈ 94 µM)
14 | COC(=O)[C@@]1(O)C[C@@H](C)C[C@H](OC)[C@H](O)[C@@H](C)C/C=C(/C)[C@H](OC(N)=O)[C@@H](OC)/C=C\C=C(/C)C(=O)NC2=CC(=O)O[C@]21O | – | – | MIC (Xanthomonas campestris): 8.12 µg/mL (≈ 13 µM); MIC (Xanthomonas oryzae): 4.06 µg/mL (≈ 6.5 µM)
15 | C=CC(C)(C)ON(CCCCCCC(O)CCCCC(O)c1nc(CCCNC(=N)NCC=C(C)C)c(OC)nc1CCCNC(=N)NCC=C(C)C)C(=N)N (centres undefined) | 3 µg/mL | 4 µg/mL | –
16 | O=C1c2ccc3cc([C@@H](O)CO)cc(O)c3c2C(=O)c2cccc(O)c21 | 0.39 µg/mL | 1.56 µg/mL | MIC (Bacillus subtilis): 0.78 µg/mL (≈ 2.23 µM)
17 | CSc1c(C(C)C)c(=O)c2cc(O)c3c(=O)c4c(O)cccc4c(=O)c3c2c1=O | 3.12 µg/mL | – | –
18 | C=CC(C)(C)ON(CCCCCCCCCCCC(O)c1nc(CCCNC(=N)NCC=C(C)C)c(OC)nc1C(O)CCNC(=N)NCC=C(C)C)C(=N)N (centres undefined) | 0.5 µg/mL | 0.5 µg/mL | –
19 | C=CC(C)(C)ON(CCCCCCCCCCCCc1nc(CCCNC(=N)N)c(OC)nc1CCCNC(=N)N)C(=N)N | 1 µg/mL | 1 µg/mL | –
20 | C[C@H]1[C@H](NC(=O)/C(=N\OC(C)(C)C(=O)O)c2csc(N)n2)C(=O)N1S(=O)(=O)O [AZTREONAM] | 0.25 µg/mL | 0.25 µg/mL | –
21 | O=C(N[C@H](CO)[C@H](O)c1ccc([N+](=O)[O-])cc1)C(Cl)Cl [CHLORAMPHENICOL] | 3.12 µg/mL | – | –
